Assay results: PMC9693575, “Isopropyl Amino Acid Esters Ionic Liquids as Vehicles for Non-Steroidal Anti-Inflammatory Drugs in Potential Topical Drug Delivery Systems with Antimicrobial Activity” (International Journal of Molecular Sciences, 2022)

Legend:
Escherichia coli = experiment: Disc diffusion antimicrobial susceptibility test, Escherichia coli; type: cell-based; set-up: key to Inhibition diameter: -: no growth of the organism
Protocol: (§1) The plates were incubated for 24 h at 37 °C.

Micrococcus Luteus = experiment: Disc diffusion antimicrobial susceptibility test, Micrococcus luteus; type: cell-based; set-up: key to Inhibition diameter: -: no growth of the organism; conditions: for zone of inhibition at 25000 µg/mL / zone of inhibition at 50000 µg/mL / zone of inhibition at 100000 µg/mL / zone of inhibition at 200000 µg/mL / zone of inhibition at 400000 µg/mL / zone of inhibition at 600000 µg/mL / zone of inhibition at 800000 µg/mL: Micrococcus luteus, 24 h, read-out: Inhibition diameter
[1] = system: Staphylococcus epidermidis; experiment: Disc diffusion antimicrobial susceptibility test, Staphylococcus epidermidis; type: cell-based; set-up: key to Inhibition diameter: -: no growth of the organism
Protocol: as §1

[2] = Thermogravimetric analysis (thermal stability); conditions: for TDTGmax, maximum decomposition temperature: DTG, air atmosphere, 10 °C min−1
Protocol: The thermal stabilities of the obtained NSAIDs isopropyl ester amino acid salts were investigated. […] The beginning of thermal degradation was evaluated based on the value of onset of the TG curve, which occurs in the first phase of the process. […]
Thermogravimetric analysis (TG)
Thermogravimetric analysis was carried out using Netzsch Proteus Thermal Analy- […]
Samples of 5–8 mg were loaded in Al2O3 […]
ment was performed in an air atmosphere (25 cm3min−1) with nitrogen flow (10 cm3min−1) […]
Differential scanning calorimetry (DSC)
Phase transformation temperatures were determined on a PerkinElmer DSC-7 (Rot-gau, Germany). The samples of 3–5 mg were loaded on the aluminum pan with a crimped lid. Measurements were carried out in a nitrogen atmosphere (20 cm3 min-1). The rate of heating/cooling was 5°C min-1. […]
tained for 30 min inside the furnace, then cooled to 0°C to condition the sample and the crucible. After that, heating was conducted to the specified temperature, followed by cool-ing. Unless otherwise stated, two complete cycles of heating and cooling were performed.
The specified maximum temperature was individual for each compound, determined from TG analysis, and it was at least 10°C lower than the onset decomposition tempera-ture. Temperatures reported from DSC data are curve peaks, the melting points being endothermic upon heating and crystallization point being exothermic upon cooling. Lead, indium, tin, and zinc were used as standards to calibrate the temperature. Indium was used for enthalpy measurement calibration. […]

[3] = solution transferred to disc 25 mg cm^−3
[4] = solution transferred to disc 50 mg cm^−3
[5] = solution transferred to disc 100 mg cm^−3
[6] = solution transferred to disc 200 mg cm^−3
[7] = solution transferred to disc 400 mg cm^−3
[8] = solution transferred to disc 600 mg cm^−3
[9] = solution transferred to disc 1000 mg cm^−3
[10] = solution transferred to disc 800 mg cm^−3

Row | Compound | Inhibition diameter (Escherichia coli; [3]) | Inhibition diameter (Escherichia coli; [4]) | Inhibition diameter (Escherichia coli; [5]) | Inhibition diameter (Escherichia coli; [6]) | Inhibition diameter (Escherichia coli; [7]) | Inhibition diameter (Escherichia coli; [8]) | Inhibition diameter (Escherichia coli; [9]) | Inhibition diameter (Micrococcus Luteus; [3]) | Inhibition diameter (Micrococcus Luteus; [4]) | Inhibition diameter (Micrococcus Luteus; [5]) | Inhibition diameter (Micrococcus Luteus; [6]) | Inhibition diameter (Micrococcus Luteus; [7]) | Inhibition diameter [1, 3] | Inhibition diameter [1, 4] | Inhibition diameter [1, 5] | Inhibition diameter [1, 6] | Inhibition diameter [1, 7] | Inhibition diameter [1, 8] | Inhibition diameter [1, 10] | Inhibition diameter [1, 9] | also measured
1 | CC(C(=O)O)c1cccc(C(=O)c2ccccc2)c1.CSCCC(N)C(=O)OC(C)C (mixture of isomers) [[L-MetOiPr][KETO], L-methionine isopropyl ester ketoprofenate] | - | - | 7.3 ± 0.5 mm | 8.0 ± 0.6 mm | 8.9 ± 0.5 mm | 10.6 ± 0.7 mm | 12.9 ± 0.4 mm | - | 7.2 ± 0.2 mm | 8.2 ± 0.2 mm | 8.5 ± 0.3 mm | 9.2 ± 0.1 mm | - | - | - | - | - | - | - | 7.4 ± 0.2 mm | Inhibition diameter (Micrococcus Luteus; [8]): 9.6 ± 0.2 mm; Inhibition diameter (Micrococcus Luteus; [10]): 12.4 ± 0.2 mm; Inhibition diameter (Micrococcus Luteus; [9]): 14.3 ± 0.2 mm
2 | CC(C(=O)O)c1cccc(C(=O)c2ccccc2)c1.CC(C)OC(=O)C(N)C(C)O (mixture of isomers) [[L-ThrOiPr][KETO], L-threonine isopropyl ester ketoprofenate] | - | - | - | - | - | - | - | - | - | - | 7.4 ± 0.3 mm | 9.6 ± 0.1 mm | - | - | - | - | - | - | - | - | Inhibition diameter (Micrococcus Luteus; [8]): 14.3 ± 0.2 mm; Inhibition diameter (Micrococcus Luteus; [10]): 15.4 ± 0.2 mm; Inhibition diameter (Micrococcus Luteus; [9]): 17.4 ± 0.1 mm; inhibition zone (in words) ([1]; S. epidermidis, tested concentrations): no inhibition zone was observed
3 | CC(C(=O)O)c1cccc(C(=O)c2ccccc2)c1.CC(C)OC(=O)C(N)C(C)C (mixture of isomers) [[L-ValOiPr][KETO]] | - | - | - | 6.7 ± 0.3 mm | 7.0 ± 0.2 mm | 7.6 ± 0.3 mm | 8.3 ± 0.4 mm | 6.3 ± 0.2 mm | 7.4 ± 0.1 mm | 8.5 ± 0.3 mm | 9.1 ± 0.3 mm | 10.3 ± 0.2 mm | - | - | - | - | 6.2 ± 0.1 mm | 6.3 ± 0.1 mm | 6.3 ± 0.2 mm | 6.9 ± 0.2 mm | Inhibition diameter (Micrococcus Luteus; [8]): 11.7 ± 0.1 mm; Inhibition diameter (Micrococcus Luteus; [9]): 15.1 ± 0.2 mm
4 | CC(C)Cc1ccc(C(C)C(=O)O)cc1 (racemic) [IBU, (R,S)-ibuprofen, reference compound] | - | - | - | - | - | - | - |  |  |  |  |  |  |  |  |  |  |  |  |  | TTGonset, the onset of the thermal degradation [2]: 186.2 °C; TDTGmax, maximum decomposition temperature [2]: 218.8 °C; zone of inhibition at 25000 µg/mL (Micrococcus Luteus; [3]): 8.6 ± 0.3 mm; zone of inhibition at 50000 µg/mL (Micrococcus Luteus; [4]): 9.4 ± 0.2 mm; zone of inhibition at 100000 µg/mL (Micrococcus Luteus; [5]): 9.7 ± 0.2 mm; zone of inhibition at 200000 µg/mL (Micrococcus Luteus; [6]): 10.2 ± 0.1 mm; zone of inhibition at 400000 µg/mL (Micrococcus Luteus; [7]): 10.6 ± 0.1 mm; zone of inhibition at 600000 µg/mL (Micrococcus Luteus; [8]): 11.5 ± 0.2 mm; zone of inhibition at 800000 µg/mL (Micrococcus Luteus; [10]): 12.7 ± 0.2 mm; zone of inhibition at 25000 µg/mL ([1]; Staphylococcus epidermidis, 24 h, solution transferred to disc 25 mg cm^−3, read-out: Inhibition diameter): 10.8 ± 0.3 mm; zone of inhibition at 50000 µg/mL ([1]; Staphylococcus epidermidis, 24 h, solution transferred to disc 50 mg cm^−3, read-out: Inhibition diameter): 11.5 ± 0.3 mm; zone of inhibition at 100000 µg/mL ([1]; Staphylococcus epidermidis, 24 h, solution transferred to disc 100 mg cm^−3, read-out: Inhibition diameter): 14.9 ± 0.3 mm; zone of inhibition at 200000 µg/mL ([1]; Staphylococcus epidermidis, 24 h, solution transferred to disc 200 mg cm^−3, read-out: Inhibition diameter): 15.3 ± 0.3 mm; zone of inhibition at 400000 µg/mL ([1]; Staphylococcus epidermidis, 24 h, solution transferred to disc 400 mg cm^−3, read-out: Inhibition diameter): 16.4 ± 0.2 mm; zone of inhibition at 600000 µg/mL ([1]; Staphylococcus epidermidis, 24 h, solution transferred to disc 600 mg cm^−3, read-out: Inhibition diameter): 17.6 ± 0.2 mm; zone of inhibition at 800000 µg/mL ([1]; Staphylococcus epidermidis, 24 h, solution transferred to disc 800 mg cm^−3, read-out: Inhibition diameter): 18.6 ± 0.2 mm
5 | COc1ccc2cc([C@H](C)C(=O)O)ccc2c1 [NAP, S-(+)-naproxen, reference compound] | - | - | - | - | - | - | - |  |  |  |  |  | - | - | - | - | - | - | - | - | TTGonset, the onset of the thermal degradation [2]: 224.5 °C; TDTGmax, maximum decomposition temperature [2]: 284.0 °C; zone of inhibition at 25000 µg/mL (Micrococcus Luteus; [3]): 6.2 ± 0.1 mm; zone of inhibition at 50000 µg/mL (Micrococcus Luteus; [4]): 6.4 ± 0.1 mm; zone of inhibition at 100000 µg/mL (Micrococcus Luteus; [5]): 6.7 ± 0.1 mm; zone of inhibition at 200000 µg/mL (Micrococcus Luteus; [6]): 6.8 ± 0.1 mm; zone of inhibition at 400000 µg/mL (Micrococcus Luteus; [7]): 7.3 ± 0.2 mm; zone of inhibition at 600000 µg/mL (Micrococcus Luteus; [8]): 7.6 ± 0.2 mm; zone of inhibition at 800000 µg/mL (Micrococcus Luteus; [10]): 8.5 ± 0.2 mm
6 | CC(C(=O)O)c1cccc(C(=O)c2ccccc2)c1.CC[C@H](C)[C@H](N)C(=O)OC(C)C [[L-IleOiPr][KETO], L-isoleucine isopropyl ester ketoprofenate] | - | - | - | - | - | - | - | - | 6.3 ± 0.2 mm | 6.6 ± 0.3 mm | 7.1 ± 0.2 mm | 7.3 ± 0.1 mm | - | - | - | - | 6.2 ± 0.1 mm | 7.3 ± 0.2 mm | 8.3 ± 0.1 mm | 10.4 ± 0.2 mm | Inhibition diameter (Micrococcus Luteus; [8]): 8.3 ± 0.2 mm; Inhibition diameter (Micrococcus Luteus; [10]): 8.4 ± 0.3 mm; Inhibition diameter (Micrococcus Luteus; [9]): 9.4 ± 0.2 mm
7 | COc1ccc2cc([C@H](C)C(=O)O)ccc2c1.CSCC[C@H](N)C(=O)OC(C)C [[L-MetOiPr][NAP], L-methionine isopropyl ester naproxenate] | - | - | - | 6.4 ± 0.3 mm | 7.1 ± 0.1 mm | 7.3 ± 0.2 mm | 7.7 ± 0.2 mm | - | - | - | - | 6.4 ± 0.1 mm | - | - | - | - | - | - | - | 7.5 ± 0.3 mm | TTGonset, the onset of the thermal degradation [2]: 149.6 °C; TDTGmax, maximum decomposition temperature [2]: 293.2 °C; Inhibition diameter (Micrococcus Luteus; [8]): 7.1 ± 0.2 mm; Inhibition diameter (Micrococcus Luteus; [10]): 7.5 ± 0.1 mm; Inhibition diameter (Micrococcus Luteus; [9]): 7.8 ± 0.2 mm
